Assay results: patent publication US20250302822A1, “COMPOSITION FOR ENHANCING ANTICANCER EFFECT OF MEK INHIBITOR COMPRISING ARIPIPRAZOLE AS ACTIVE INGREDIENT” (KOREA INSTITUTE OF RADIOLOGICAL & MEDICAL SCIENCES, priority 2022, published 2025)

Key:
NOXA = NOXA protein expression in COLO 205 cells via Western blot; format: cell-based; conditions: eight hours after treatment, Western blot (FIG. 1)
Description: (§1) To identify an effect of aripiprazole on the expression of NOXA and PUMA proteins in cancer cells, COLO 205 cells were treated with aripiprazole. Eight hours later, proteins were extracted from cells after washing with PBS, and a level of NOXA and PUMA expression was checked via Western blot.

PUMA = PUMA protein expression in COLO 205 cells via Western blot; format: cell-based; conditions: eight hours after treatment, Western blot (FIG. 1)
Description: as §1

## O=C1CCc2ccc(OCCCCN3CCN(c4cccc(Cl)c4Cl)CC3)cc2N1 [aripiprazole]
NOXA
  expression of NOXA protein: increased
PUMA
  expression of PUMA protein: increased
